# Reference: article PMC10322702 (Nature Chemistry, 2023)
# “And” between values parts separate entries of the source, which are not always exact repeats. Equal values may be shown once. Numbered stars: 1 amine (or outer) side, 2 acyl side, 3 side chain; on linkers, the order of the positions; unused ones are H or OH. Bridge positions count the residues as written; N and C are the ends. Square brackets hold non-standard residues; d marks the D form. Peptide text beside a SMILES is read from it. Acbc(cis-1,3) = O=C([C@H]1C[C@@H](N[*:1])C1)[*:2]
# Columns and labels:
# M^pro = M^pro (Severe acute respiratory syndrome coronavirus 2, UniProt P0DTD1); type: biochemical, SARS-CoV-2
# [1] = Serum stability assay in human serum (LC/MS)
# SARS-CoV-2 M^pro [2] = target: T1, SARS-CoV-2 M^pro (Severe acute respiratory syndrome coronavirus 2, UniProt P0DTD1); experiment: biochemical; type: binding; details: read-out: ka (kinetic association)
# [3] = Antiviral activity in cells of GM4 and related macrocycles; type: cell-based
# [4] = Cytotoxicity of GM4 and related macrocycles; type: cell-based; details: at concentrations as high as 100 µM
# SARS-CoV-2 M^pro [5] = target: T1, SARS-CoV-2 M^pro; experiment: biochemical; type: biochemical
compound,measurement,setting,value
"CC(C)C[C@@H]1NC(=O)[C@H](CC(N)=O)NC(=O)[C@H](CC(C)C)NC(=O)[C@H]2C[C@H](C2)NC(=O)[C@H](Cc2c[nH]cn2)NC(=O)[C@H](Cc2ccccc2)NC(=O)[C@@H](Cc2ccc(O)cc2)NC(=O)CSC[C@H](C(N)=O)NC(=O)CNC(=O)[C@@H]2CCCN2C(=O)[C@H](CCCNC(=N)N)NC(=O)[C@H](Cc2ccc(O)cc2)NC(=O)CNC1=O [GM4] ({CH2CO}-[dY]FH[Acbc(cis-1,3)]LNLGYRPG[dC]-NH2; thioether N-13)",hydrolysis of the peptide by M^pro,M^pro,lack of efficient GM4 hydrolysis
same,Remaining peptide (%),"[1]; 37 °C, incubation time 1 h, relative to 0 h = 100%, technical replicates, 60 min",104.39% and 106.19%
same,Remaining peptide (%),"[1]; 37 °C, incubation time 4 h, relative to 0 h = 100%, technical replicates, 240 min",95.61% and 97.60%
same,Remaining peptide (%),"[1]; 37 °C, incubation time 8 h, relative to 0 h = 100%, technical replicates, 480 min",99.57% and 100.45%
same,Remaining peptide (%),"[1]; 37 °C, incubation time 24 h, relative to 0 h = 100%, technical replicates, 1440 min",95.67% and 101.18%
same,Remaining peptide (%),"[1]; 37 °C, incubation time 50 h, relative to 0 h = 100%, technical replicates, 3000 min",76.05% and 78.63%
same,Remaining peptide (%),"[1]; 37 °C, incubation time 100 h, relative to 0 h = 100%, technical replicates, 6000 min",55.56% and 56.89%
same,fold increase in serum (proteolytic) stability compared to alanine-substituted variant,[1]; GM4 vs GM4γ^14A,12 fold
same,half-life at 10 μM,[1]; human,126 h
same,"remaining at 1 h, 10 μM","[1]; human, Remaining peptide (%), 37 °C, incubation time 1 h, relative to 0 h = 100%, technical replicates",104%
same,"remaining at 4 h, 10 μM","[1]; human, Remaining peptide (%), 37 °C, incubation time 4 h, relative to 0 h = 100%, technical replicates",95.7%
same,"remaining at 8 h, 10 μM","[1]; human, Remaining peptide (%), 37 °C, incubation time 8 h, relative to 0 h = 100%, technical replicates",97.7%
same,"remaining at 24 h, 10 μM","[1]; human, Remaining peptide (%), 37 °C, incubation time 24 h, relative to 0 h = 100%, technical replicates",82.2%
same,"remaining at 50 h, 10 μM","[1]; human, Remaining peptide (%), 37 °C, incubation time 50 h, relative to 0 h = 100%, technical replicates",67.9%
same,"remaining at 100 h, 10 μM","[1]; human, Remaining peptide (%), 37 °C, incubation time 100 h, relative to 0 h = 100%, technical replicates",55.7%
same,kon,SARS-CoV-2 M^pro [2],100000 M⁻¹ s⁻¹
same,antiviral activity in cells,[3],do not manifest obvious antiviral activity
same,cytotoxicity,[4],no cytotoxicity
same,IC50,SARS-CoV-2 M^pro [5],50 nM
same,inhibition at 0.102 µM,SARS-CoV-2 M^pro [5],84.7%
same,inhibition at 0.309 µM,SARS-CoV-2 M^pro [5],97.9%
same,inhibition at 0.933 µM,SARS-CoV-2 M^pro [5],100%
same,inhibition at 2.75 µM,SARS-CoV-2 M^pro [5],100%
same,inhibition at 8.32 µM,SARS-CoV-2 M^pro [5],100%
